The record followed here is patent US10278974B2 (Pfizer Inc., priority 2010, dated 2019).

Common to all, as to format: physicochemical
The nature of data set [1]: Hygroscopicity by dynamic vapor sorption (DVS). As to conditions: 30° C., 0 to 90% RH in 15% RH intervals. The protocol: Solid (20-25 mg) was exposed to a controlled relative humidity (% RH) and temperature environment (30° C.), and the weight change was recorded over time. The humidity was stepped from 0 to 90% RH in 15% RH intervals.
A short description of data set [2]: Susceptibility of salt forms to hydration. As to conditions: compared to other salt forms of Compound 1; solid dosage form suitability.
A short description of data set [3]: Physical stability on storage, followed by PXRD. As to conditions: two weeks of storage at 70° C. with 75% relative humidity. How it is done: A PXRD pattern for maleate polymorph Form B was measured at: 1) an initial time point and 2): two weeks after storage at 70° C. with 75% relative humidity (RH).
A PXRD pattern for S-camsylate polymorph Form A was measured at: 1) an initial time point and 2): two weeks after storage at 70° C. with 75% relative humidity (RH).

Take `CC1(C)[C@@H]2CC[C@@]1(CS(=O)(=O)O)C(=O)C2.CNCc1ccc(-c2[nH]c3cc(F)cc4c3c2CCNC4=O)cc1` [S-camsylate polymorph Form A]: the “hygroscopicity indicated by dynamic vapor sorption isotherm” value in data set [1] was “non-hygroscopic”. Moreover, the susceptibility to hydration result in data set [2] is “not susceptible to hydration”. Besides, in data set [3], the “change of PXRD pattern after storage (physical stability)” value is recorded as “did not change significantly”.
For `CNCc1ccc(-c2[nH]c3cc(F)cc4c3c2CCNC4=O)cc1.O=C(O)C=CC(=O)O` [maleate polymorph Form B] the same measures were “non-hygroscopic”, “not susceptible to hydration” and “did not change significantly”.
